Structures can show the parent of a compound that is named as a salt. Where two headings read alike, the source gives them in different places.

10 compounds from US20260234165A1, “MACROCYCLIC COMPOUNDS, PREPARATION METHOD THEREFOR, AND USE THEREOF” (GENFLEET THERAPEUTICS (SHANGHAI) INC., priority 2004, published 2026) can be followed below.

Assay type in all cases: cell-based, human
For assay [1], the system named is p-ERK in AsPC-1 cells (KRAS G12D mutation). Put plainly: Cell p-ERK assay (HTRF) in AsPC-1 cells. Particulars: AsPC-1 cells, 3 h compound incubation, HTRF p-ERK T202/Y204, read-out: AsPC-1 p-ERK IC50. In outline:
(§1)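 Seed 10000 AsPC-1 or 20000 NCI-H441 cells/well, overnight 37 °C/5% CO2. Cpd 3.16-fold series, 0.1% DMSO final, 3 h. Lyse 30 min, HTRF p-ERK (T202/Y204) Ab 4 h. IC50: 4-parameter fit of IR% normalised to DMSO and blank.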
(Time-resolved FRET reads energy transfer from a long-lived donor to a nearby acceptor.)

Assay [2] deals with p-ERK in NCI-H441 cells (KRAS G12V mutation). Put plainly: Cell p-ERK assay (HTRF) in NCI-H441 cells. Particulars: NCI-H441 cells, 3 h compound incubation, HTRF p-ERK T202/Y204, read-out: H441 p-ERK IC50. In outline:
as §1

Assay [3] deals with AsPC-1 cells (KRAS G12D mutation). Briefly: 3D cell proliferation assay (CellTiter Glo-3D), AsPC-1. Particulars: medium with 2% FBS, read-out: AsPC-1 AP IC50. In outline: (§2)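 Five-day treatment of NCI-H441 or AsPC-1 cells (800/well, 2% FBS RPMI-1640, 0.1% DMSO) with graded compound concentrations; ATP content by CellTiter-Glo 3D; IC50 fitted.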
Background: In ATP-based viability assays light output follows the ATP content of the culture.

Assay [4] relates to NCI-H441 cells. Briefly: 3D cell proliferation assay (CellTiter Glo-3D), NCI-H441. Particulars: medium with 2% FBS, read-out: H441 AP IC50. In outline:
as §2

Where [5] appears, read: 3D cell proliferation (CellTiter Glo-3D).
The mark [6] stands for this setting: Homo sapiens, ASPC1, 3D cell proliferation (CellTiter Glo-3D).
Where [7] appears, read: Homo sapiens, NCI-H441, 3D cell proliferation (CellTiter Glo-3D).

Turning to `CCn1c(-c2cc(C#CCN3CCCOCC3)cnc2[C@H](C)OC)c2c3cc(ccc31)-c1csc(n1)C[C@H](NP(=O)(CC)CC)C(=O)N1CCC[C@H](N1)C(=O)OCC(C)(C)C2` (atropisomer, axis not shown; (Ra)) [Compound Z920, N-((6^3S,4S,Z)—(Ra)-1^2-(5-(3-(1,4-oxazepan-4-yl)prop-1-yn-1-yl)-2-((S)-1-methoxyethyl)pyridin-3-yl)-1^1-ethyl-10,10-dimethyl-5,7-dioxo-6^1,6^2,6^3,6^4,6^5,6^6-hexahydro-1^1H-8-oxa-2(4,2)-thiazola-1(5,3)-indola-6(1,3)-pyridazinacycloundecaphane-4-yl)-P,P-diethylphosphoramidite formate], the 50% inhibitory concentration (IC50) in assay [1] came out at 33.8 nM; in assay [2], 9.41 nM; in assay [3] (setting [5]), 38.3 nM; in assay [4] (setting [5]), 15 nM.
Turning to `CCn1c(-c2cc(C#CCN3CC[C@H](C#N)C3)cnc2[C@H](C)OC)c2c3cc(ccc31)-c1csc(n1)C[C@H](Nc1nnc3cc(C)ccn13)C(=O)N1CCC[C@H](N1)C(=O)OCC(C)(C)C2` (atropisomer, axis not shown; (Ra)) [Compound Z1011, (3S)-1-(3-(5-((6^3S,4S,Z)—(Ra)-1^1-ethyl-10,10-dimethyl-4-((7-methyl-[1,2,4]triazolo[4,3-a]pyridin-3-yl)amino)-5,7-dioxo-6^1,6^2,6^3,6^4,6^5,6^6-hexahydro-1^1H-8-oxa-2(4,2)-thiazola-1(5,3)-indola-6(1,3)-pyridazinacycloundecaphane-1-yl)-6-((S)-1-methoxyethyl)pyridin-3-yl)prop-2-yn-1-yl)pyrrolidine-3-carbonitrile], the concentration for half-maximal inhibition (IC50) in assay [1] is 2.89 nM; in assay [2] it was 1.22 nM; in assay [3] (setting [5]), 2.07 nM; in assay [4] (setting [5]) it was 1.54 nM.
With `CCn1c(-c2cc(C#CCN3CCC3)cnc2[C@H](C)OC)c2c3cc(ccc31)-c1csc(n1)C[C@H](NC(=O)[C@H]1[C@H](C)[C@@H]1C)C(=O)N1CCC[C@H](N1)C(=O)OCC(C)(C)C2` [Compound Z361, (1r,2R,3S)—N-((6^3S,4S,Z)-1-(5-(3-(azetidin-1-yl)prop-1-yn-1-yl)-2-((S)-1-methoxyethyl)pyridin-3-yl)-1^1-ethyl-10,10-dimethyl-5,7-dioxo-6^1,6^2,6^3,6^4,6^5,6^6-hexahydro-1^1H-8-oxa-2(4,2)-thiazola-1(5,3)-indola-6(1,3)-pyridazinacycloundecaphane-4-yl)-2,3-dimethylcyclopropane-1-carboxamide formate], the IC50 was 2.66 nM in assay [1], 2.61 nM in assay [2], 2.38 nM in assay [3] (setting [5]) and 2.25 nM in assay [4] (setting [5]).
In the case of `CCn1c(-c2cc(N(C)CC3COCCN3C)cnc2[C@H](C)OC)c2c3cc(ccc31)-c1csc(n1)C[C@H](NC(=O)[C@H]1[C@H](C)[C@@H]1C)C(=O)N1CCC[C@H](N1)C(=O)OCC(C)(C)C2` (stereo partly drawn) [Compound Z76, (1r,2R,3S)—N-((6^3S,4S,Z)-1^1-ethyl-1^2-(2-((S)-1-methoxyethyl)-5-(methyl((4-methylmorpholin-3-yl)methyl)amino)pyridin-3-yl)-10,10-dimethyl-5,7-dioxo-6^1,6^2,6^3,6^4,6^5,6^6-hexahydro-11H-8-oxa-2(4,2)-thiazola-1(5,3)-indola-6(1,3)-pyridazinacycloundecaphane-4-yl)-2,3-dimethylcyclopropane-1-carboxamide], the IC50 was found to be 19.2 nM in assay [1] (Homo sapiens, ASPC1, 3 h); 19 nM in assay [2] (Homo sapiens, NCI-H441, 3 h); 30.3 nM in assay [3] (setting [6]); 29.9 nM in assay [4] (setting [7]).
Take `CCn1c(-c2cc(C#CCN3CCCOCC3)cnc2[C@H](C)OC)c2c3cc(ccc31)-c1csc(n1)C[C@H](NC(=O)C[C@@H]1CC1(F)F)C(=O)N1CCC[C@H](N1)C(=O)OCC(C)(C)C2` (atropisomer, axis not shown; (Ra)) [Compound Z932-1, N-((6^3S,4S,Z)—(Ra)-1′-(5-(3-(1,4-oxazepan-4-yl)prop-1-yn-1-yl)-2-((S)-1-methoxyethyl)pyridin-3-yl)-1^1-ethyl-10,10-dimethyl-5,7-dioxo-6^1,6^2,6^3,6^4,6^5,6^6-hexahydro-1^1H-8-oxa-2(4,2)-thiazola-1(5,3)-indola-6(1,3)-pyridazinacycloundecaphane-4-yl)-2-((R)-2,2-difluorocyclopropyl)acetamide]: the IC50 amounted to 2.28 nM in assay [1] (Homo sapiens, ASPC1, 3 h); 1.02 nM in assay [2] (Homo sapiens, NCI-H441, 3 h); 3.82 nM in assay [3] (setting [6]); 2.25 nM in assay [4] (setting [7]).
In the case of `CCn1c(-c2cc(C#CCN3CC(F)C3)cnc2[C@H](C)OC)c2c3cc(ccc31)-c1csc(n1)C[C@H](NC(=O)[C@H]1[C@H](C)[C@@H]1C)C(=O)N1CCC[C@H](N1)C(=O)OCC(C)(C)C2` (atropisomer, axis not shown; (Ra)) [Compound Z383-1, (1r,2R,3S)—N-((6^3S,4S,Z)—(Ra)-1^2-(5-(3-(3-fluoroazetidin-1-yl)prop-1-yn-1-yl)-2-((S)-1-methoxyethyl)pyridin-3-yl)-1^1-ethyl-10,10-dimethyl-5,7-dioxo-6^1,6^2,6^3,6^4,6^5,6^6-hexahydro-1^1H-8-oxa-2(4,2)-thiazola-1(5,3)-indola-6(1,3)-pyridazinacycloundecaphane-4-yl)-2,3-dimethylcyclopropane-1-carboxamide], the IC50 in assay [1] was 7.39 nM; in assay [2] it was 2.79 nM; in assay [3] (setting [5]), 5.52 nM; in assay [4] (setting [5]) it was 6.04 nM.
In the case of `CCn1c(-c2cc(C#CCN3CCC3)cnc2[C@H](C)OC)c2c3cc(ccc31)-c1csc(n1)C[C@H](NC(=O)[C@H]1[C@@H]3COC[C@@H]31)C(=O)N1CCC[C@H](N1)C(=O)OCC(C)(C)C2` (atropisomer, axis not shown; (Ra)) [Compound Z1031, (1R,5S,6r)-N-((6^3S,4S,Z)-1^2-(5-(3-(azetidin-1-yl)prop-1-yn-1-yl)-(Ra)-2-((S)-1-methoxyethyl)pyridin-3-yl)-1^1-ethyl-10,10-dimethyl-5,7-dioxo-6^1,6^2,6^3,6^4,6^5,6^6-hexahydro-1^1H-8-oxa-2(4,2)-thiazola-1(5,3)-indola-6(1,3)-pyridazinacycloundecaphane-4-yl)-3-oxabicyclo[3,1,0]hexane-6-carboxamide], the concentration for half-maximal inhibition (IC50) is 0.74 nM in assay [1] (Homo sapiens, ASPC1, 3 h); 0.67 nM in assay [2] (Homo sapiens, NCI-H441, 3 h); 1.47 nM in assay [3] (setting [6]); 0.91 nM in assay [4] (setting [7]).
On to `CCn1c(-c2cc(OC[C@@H]3CCCN3Cc3ccn(C)n3)cnc2[C@H](C)OC)c2c3cc(ccc31)-c1csc(n1)C[C@H](NC(=O)[C@H]1[C@H](C)[C@@H]1C)C(=O)N1CCC[C@H](N1)C(=O)OCC(C)(C)C2` (atropisomer, axis not shown; (Ra)) [Compound Z784-1, (1r,2R,3S)—N-((6^3S,4S,Z)—(Ra)-1^2-5-(((S)-1-((1-methyl-1H-pyrazol-3-yl)methyl)pyrrolidin-2-yl)methoxy)-(2-((S)-1-methoxyethyl)-pyridin-3-yl)-10,10-dimethyl-5,7-dioxo-6^1,6^2,6^3,6^4,6^5,6^6-hexahydro-1^1H-8-oxa-2(4,2)-thiazola-1(5,3)-indola-6(1.3)-pyridazinacycloundecaphane-4-yl)-2,3-dimethylcyclopropane-1-carboxamide], for which the IC50 turned out to be 0.89 nM in assay [1] (Homo sapiens, ASPC1, 3 h); 0.9 nM in assay [2] (Homo sapiens, NCI-H441, 3 h); 1.37 nM in assay [3] (setting [6]); 0.93 nM in assay [4] (setting [7]).
For the compound `CCn1c(-c2cc(N3CCN(C)CC3)cnc2[C@H](C)OC)c2c3cc(ccc31)-c1csc(n1)C[C@H](Nc1nnc3ccc(C)cn13)C(=O)N1CCC[C@H](N1)C(=O)OCC(C)(C)C2` (atropisomer, axis not shown; (Ra)) [Compound Z434, (6^3S,4S,Z)-1^1-ethyl-(Ra)-1^2-(2-((S)-1-methoxyethyl)-5-(4-methylpiperazin-1-yl)pyridin-3-yl)-10,10-dimethyl-4-((6-methyl-[1,2,4]triazolo[4,3-a]pyridin-3-yl)amino)-6^1,6^2,6^3,6^4,6^5,6^6-hexahydro-1^1H-8-oxa-2(4,2)-thiazola-1(5,3)-indola-6(1,3)-pyridazinacycloundecaphane-5,7-dione], the concentration for half-maximal inhibition (IC50) in assay [1] (Homo sapiens, ASPC1, 3 h) stood at 69.4 nM; in assay [2] (Homo sapiens, NCI-H441, 3 h), 17.5 nM; in assay [3] (setting [6]) it was 104 nM; in assay [4] (setting [7]), 18.1 nM.
For `CCn1c(-c2cc(C#CCN3CCCOCC3)cnc2[C@H](C)OC)c2c3cc(ccc31)-c1csc(n1)C[C@H](NP1(=O)CC(C)=C(C)C1)C(=O)N1CCC[C@H](N1)C(=O)OCC(C)(C)C2` (atropisomer, axis not shown; (Ra)) [Compound Z1032, (6^3S,4S,Z)—(Ra)-1^2-(5-(3-(1,4-oxazepan-4-yl)prop-1-yn-1-yl)-2-((S)-1-methoxyethyl)pyridin-3-yl)-4-((3,4-dimethyl-1-oxido-2,5-dihydrophosphol-1-yl)amino)-1^1-ethyl-10,10-dimethyl-6^1,6^2,6^3,6^4,6^5,6^6-hexahydro-1^1H-8-oxa-2(4,2)-thiazola-1(5,3)-indola-6(1,3)-pyridazinacycloundecaphane-5,7-dione], the half-maximal inhibitory concentration (IC50) in assay [1] (Homo sapiens, ASPC1, 3 h) is 7.52 nM; in assay [2] (Homo sapiens, NCI-H441, 3 h), 2.18 nM; in assay [3] (setting [6]), 20.9 nM; in assay [4] (setting [7]), 8.14 nM.

One may read the IC50 as the concentration needed to halve the response being measured.
